For one assay, the system named is HEK293 tau-BiFC cells. Type of assay: cell-based. Conditions: for level of tau phosphorylation: HEK293 Tau-BiFC cell line, FIG. 5b; for tau accumulation (tau-BiFC): HEK293 tau-BiFC, FIG. 5. The text has this: (§1) The establishment of the HEK293/tau-BiFC cell line was previously described (Tak H, Hague M M, Kim M J, Lee J H, Baik J H, Kim Y et al. Himolecular fluorescence complementation; lighting-up Tau-Tau interaction in living cells. PLOS One 2013; 8: e81682). Venus fluorescence protein amino-terminal fragment (VN 173) and carboxyl-terminal fragment (VC 155), which are independently non-fluorescent, were fused to full-length tau proteins. For neuronal cell expression, tau-BiFC constructs (pCMV6-hTau40-VN173 and pCMV6-hTau-VC155) were transfected into SH-SY5Y. SH-SY5Y/tau-BiFC stable cells were selected using Geneticin (200 μg/ml). […] All established cell lines were grown in Dulbecco's modified eagle medium containing 10% fetal bovine serum, […] and 1 μg/ml of Geneticin at 37° C. in a humidified atmosphere containing 5% CO2.
(§2) For microscopic image analysis, HEK293 tau-BiFC and SH-SY5Y tau-BiFC cells were plated onto a black 384-well plate. The next day, tau-BiFC cells were treated with okadaic acid (O8010, Sigma), cyclosporine A (C3662, Sigma) or deltamethrin (D9315, Sigma) at various concentrations. After incubation for 29 hours, the plate was imaged using the Operetta® high contents imaging system (PerkinElmer). The cellular intensities of tau-BiFC fluorescence were analyzed using the Harmony® 3.1 analysis software. Each experiment was performed in triplicate. The bar graphs for BiFC intensity indicate the means ±SEM from three independent experiments.

The subject of the next assay is SH-SY5Y tau-BiFC cells. The assay is classed as cell-based. Conditions: for level of tau phosphorylation: SH-SY5Y Tau-BiFC cell line, FIG. 5b; for dose dependence of tau phosphorylation level: SH-SY5Y Tau-BiFC, various concentrations, 29 hours, FIG. 5c; for tau accumulation (tau-BiFC): SH-SY5Y tau-BiFC, FIG. 5.
Description: as §1, §2

A further assay concerns the target T1, PP2B (Homo sapiens, UniProt Q08209).
T1 construct: endogenous in cells; host or cells: SH-SY5Y/tau-BiFC and HEK293/tau-BiFC cells
To be noted: by binding to cyclophilin or FKBP respectively; cited from earlier work.

Take cyclosporine A: in the assay on HEK293 tau-BiFC cells, the “level of tau phosphorylation” value is given as “increased” and the “tau accumulation (tau-BiFC)” value is given as “increase of tau accumulation”. In the assay with SH-SY5Y tau-BiFC cells, the “level of tau phosphorylation” value is reported as “increased”, the “dose dependence of tau phosphorylation level” value (“dose dependence” for short) is “elevated the level of tau phosphorylation in a dose-dependent manner” and the “tau accumulation (tau-BiFC)” value is “increase of tau accumulation”. Besides, on PP2B, the enzyme activity inhibition result is “inhibits specifically enzyme activity”.

For the compound `CC1(C)[C@H](C(=O)O[C@H](C#N)c2cccc(Oc3ccccc3)c2)[C@@H]1C=C(Br)Br` [deltamethrin], in the assay with HEK293 tau-BiFC cells, the “level of tau phosphorylation” value is on record as “increased” and the “tau accumulation (tau-BiFC)” value is “increase of tau accumulation”. Besides, in the assay with SH-SY5Y tau-BiFC cells, the “level of tau phosphorylation” value is listed as “increased”, the “dose dependence” value is “declining trend after the threshold of 3 μM” and the “tau accumulation (tau-BiFC)” value was “increase of tau accumulation”.

In the case of `C=C1[C@@H](O)[C@@H]2O[C@]3(CC[C@H](/C=C/[C@@H](C)[C@@H]4CC(C)=C[C@@]5(O[C@H](C[C@@](C)(O)C(=O)O)CC[C@H]5O)O4)O3)CC[C@H]2O[C@@H]1[C@@H](O)C[C@H](C)[C@H]1O[C@@]2(CCCCO2)CC[C@H]1C` [okadaic acid], in the assay on HEK293 tau-BiFC cells, the “level of tau phosphorylation” value is “increased” and the “tau accumulation (tau-BiFC)” value is given as “increase of tau accumulation”. The “intensity of tau phosphorylation” value in the assay on HEK293 tau-BiFC cells (HEK 293 cell line, FIG. 5d) is listed as “higher intensity of tau phosphorylation”. Moreover, in the assay with SH-SY5Y tau-BiFC cells, the “level of tau phosphorylation” value is “increased”, the “dose dependence” value is listed as “elevated the level of tau phosphorylation in a dose-dependent manner” and the “tau accumulation (tau-BiFC)” value is “increase of tau accumulation”.
